We go through 1 compound from paper PMC7848139, “Novel Hybrid CHC from β-carboline and N-Hydroxyacrylamide Overcomes Drug-Resistant Hepatocellular Carcinoma by Promoting Apoptosis, DNA Damage, and Cell Cycle Arrest” (Frontiers in Pharmacology, 2021).

One may read the IC50 as the concentration needed to halve the response being measured.

The subject of one data set is Bel7402/5-FU cells. Kind of data set: Cell apoptosis analysis by flow cytometry. In kind it is cell-based, human. The note with it: 72 h. The method, then:
Briefly, Bel7402/5-FU cells were cultured in DMEM at 37°C with 5% CO2 for 12 h. […] Then Bel7402/5-FU cells were collected and using APC-Annexin V and 7-AAD to stain these cells under the condition of 37°C for 15 min. Flow cytometry analysis (Calibur, BD, United States) decide the percentage of apoptotic cells according to APC signal (FL4) (excitation wavelength at 633 nm; emission wavelength at 660 nm) and 7-AAD staining signal (FL3) (excitation wavelength at 488 nm; emission wavelength at 647 nm). WinList 3D (7.1) analyzed the data and Excel 2016 plotted the histogram.
FIGURE 5 CHC causes apoptosis of Bel7402/5-FU cells. […] The data (mean ± SD, percentage of apoptotic cells) represent the average of three separate experiments. *p < 0.01 vs. control.
(Flow cytometry measures light scatter and fluorescence of single cells or particles in a stream.)

Data set [1] deals with H2AX (S139ph) in Bel7402/5-FU cells. As to the kind of experiment: Western blotting of DNA damage marker H2AX. Type of data set: cell-based, human. The note with it: 72 h. The method, then: (§1) The HDAC, autophagy and apoptosis-related proteins were analyzed according to Western blotting assay. […]. And anti-Ac-histone H3, anti-Ac-histone H4, anti-Ac-α-tubulin, anti-Bax, anti-Bcl2, anti-H2AX (S139ph), anti-CDK1, anti-cyclin B, and anti-β-actin antibodies (Cell Signaling Technology, MA, United States) detected the target proteins after membranes were blocked with 5% fat-free milk. The peroxidase-conjugated secondary antibodies detected the bound antibodies for 1 h and visualized according to improved chemiluminescent reagent.
[…]; (B) The relative expression levels of H2AX protein were quantitatively analyzed using an internal reference β-actin, and the data (mean ± SD) were from three separate experiments. *p < 0.01 vs. control.
On the technique in general: In western blotting, separated proteins are transferred to a membrane and probed.

For data set [2], the system named is Bax, Bcl-2, caspase-3 in Bel7402/5-FU cells. Kind of data set: Western blotting of apoptosis-related proteins. Type of data set: cell-based, human. Particulars: 72 h. As to the method: as §1
[…]; (B) The relative expression levels of each protein (Bax, Bcl-2, pro-caspase-3, and cleaved caspase-3) were quantitatively analyzed using β-actin as reference. The data are presented as the mean ± SD of three separated assays. *p < 0.01 vs. control.

The next data set relates to HCT116. Kind of data set: MTT antiproliferative assay, HCT116. In kind it is cell-based. The note with it: Homo sapiens, HCT-116, 72 h, mean ± SD of three experiments, read-out: In vitro antiproliferative activity (IC50) HCT116. As to the method: (§2) Briefly, appropriate cells (1 × 10^4 cells/mL) were placed into 96-well plates in 100 μL of DMEM medium overnight. Then adding 100 μL of evaluated compounds into individual well for 72 h while 0.1% DMSO aqueous solution was treated as the negative control. After incubation with 30 μl MTT (5 mg/mL) for 4 h in all well, and ELISA plate reader measured absorbance of each well at 570 nm. Then calculating cytotoxicity effect of evaluated compounds through the formula: Cell inhibitory percentage (%) = (1−OD of treatment group/OD of control) × 100%.
In general terms: Tetrazolium assays rely on reduction of a dye to a coloured formazan, in cell work by metabolically active cells.

For the next data set, the system named is LO2 cells. Kind of data set: MTT assay on normal liver LO2 cells. In kind it is cell-based, human. The note with it: increasing dosages, 72 h. The method, then: Human cancer cell lines (SMMC-7721, Bel7402, Huh7, HCT116), drug-resistant cell lines (Bel7402/5-FU), and human normal hepatocyte cells (LO2) were purchased from Institute of Cell Biology (Shanghai, China).
as §2, with “100%. GraphPadPrism (4.03) calculated data to afford Corresponding IC50 values.” for “100%.”
FIGURE 3 Inhibition potency of CHC against the proliferation on Bel7402, Bel7402/5-FU, and LO2 cells. Cells were treated with CHC at the indicated concentrations for 72 h. MTT assays were performed to evaluate cell proliferation. The inhibition (%) rate (mean ± SD) were from three separate experiments.

The target of a further data set is T1, recombinant human HDAC8 (Homo sapiens, UniProt Q9BY41).
T1 construct: purchased Enzo Life Sciences Inc
T1 sequence (Q9BY41 1-377): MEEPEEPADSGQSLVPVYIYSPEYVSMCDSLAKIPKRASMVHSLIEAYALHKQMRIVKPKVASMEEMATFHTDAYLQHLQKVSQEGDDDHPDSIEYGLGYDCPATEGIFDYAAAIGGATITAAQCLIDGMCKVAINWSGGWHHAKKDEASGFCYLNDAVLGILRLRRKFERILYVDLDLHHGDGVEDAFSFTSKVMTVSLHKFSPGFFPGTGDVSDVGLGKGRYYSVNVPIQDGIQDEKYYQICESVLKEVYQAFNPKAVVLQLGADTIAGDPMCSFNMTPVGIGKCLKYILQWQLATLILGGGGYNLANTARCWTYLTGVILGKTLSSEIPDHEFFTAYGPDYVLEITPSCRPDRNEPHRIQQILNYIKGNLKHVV
Kind of data set: HDAC fluorimetric assay, HDAC8. In kind it is biochemical. Particulars: mean ± SD of three experiments. As to the method: The assay was conducted according to the HDAC1/3/6/8 assay kit (Enzo Life Sciences Inc.). Each different concentrations of evaluated compounds were, respectively, incubated with each HDAC1/3/6/8 at coupling of corresponding HDAC substrate (Boc-Lys (Ac)-AMC) at 37°C for 60 min. Then stopping the reaction under adding lysine developer.

Data set [3] relates to cyclin B and CDK1 in Bel7402/5-FU cells. Kind of data set: Western blotting of cyclin B and CDK1. The note with it: 2.0 and 5.0 μM, 72 h, immunoblotting. In kind it is cell-based, human. As to the method:
as §1
. Values (mean ± SD) were obtained from three separate experiments. *p < 0.01 vs. control.

Another data set has as its system Bel7402/5-FU xenografts. As to the kind of experiment: In vivo tumor growth inhibition, Bel7402/5-FU xenograft. Set-up: species or system BALB/c nude mice. Particulars: intraperitoneal daily, 21 days. As to the method:
All animal experimental protocols were approved by the Animal Research and Care Committee of Nantong University. Female BALB/c nude mice at 5∼6 week-old were subcutaneously implanted with 1×10^6 Bel7402/5-FU cells. […] The body mass and tumor size of nude mice were surveyed every three days during the 21 days study. Tumor size (mm^3) of nude mice was determined using the formula: tumor size = ½ (Length×Width^2). Finally, these tumor-bearing mice were sacrificed, and their tumors were removed and weighed at the end of the 21 days.
Data (means ± SD) were from tumor volumes or weight of each group of mice (n = 6 per group). *p < 0.01 vs. control group.

Structures are written as SMILES.

Turning to `CN(C)c1ccc(-c2nc(C(=O)NCc3ccc(/C=C/C(=O)NO)cc3)cc3c2[nH]c2ccccc23)cc1` [CHC, (E)-N-(4-(3-(hydroxyamino)-3-oxoprop-1-en-1-yl)benzyl)-1-(4-dimethylaminophenyl)-9H-pyrido [3,4-b]indole-3-carboxamide], the “rate of Annexin V+ Bel7402/5-FU cellular apoptosis” value with Bel7402/5-FU cells (2.0 μM) was 42.3%; in the data set on Bel7402/5-FU cells (5.0 μM), 67.2%. In data set [1], the “expression of phosphorylated H2AX” value is given as “induced the expression of phosphorylated H2AX in Bel7402/5-FU cells in a dosage-dependent manner”. The “expression of Bax, Bcl-2 and cleavage of caspase-3” value in data set [2] was “significantly upregulate the expression of Bax and cleavage of caspase-3 and downregulate the expression of Bcl-2”. Moreover, the results for the IC50 in the data set on HCT116 and on recombinant human HDAC8 were 2050 ± 190 nM and above 1000 nM, respectively. Also, the “cytotoxicity on normal liver LO2 cells growth” value with LO2 cells is reported as “minimal cytotoxicity effects”. In addition, the “expression of cyclin B and CDK1” value in data set [3] was “downregulated the expression of cyclin B and CDK1”. In addition, the “decrease of tumor mass compared to saline group” value in the data set with Bel7402/5-FU xenografts (70 μmol/kg) is 65 % (w/w). Also, the “tumor mass at end of treatment” value in the data set with Bel7402/5-FU xenografts (70 μmol/kg, n = 6, saline group 1.47 ± 0.21 g) came to 0.51 ± 0.08 g. Moreover, the “body mass change vs vehicle group” value with Bel7402/5-FU xenografts is on record as “no significant statistical difference”. The “xenograft hepatic tumor volume” value with Bel7402/5-FU xenografts was “markedly diminished xenograft hepatic tumor volume”.
